This is an account of results in article PMC9851200, “Multiparameter phenotypic screening for endogenous TFEB and TFE3 translocation identifies novel chemical series modulating lysosome function” (Autophagy, 2022).

What all share (experiment): biochemical
Format in all cases: binding

The target of assay [1] is T1, cellular kinases of SH-SY5Y cells (Homo sapiens, UniProt Q58A45).
T1 construct: endogenous in cells; host or cells: SH-SY5Y
The settings on record: 2µM, SH-SY5Y cells, labeling site ATP. From the text: (§1) As KINOMEscan is an in vitro assay, and as different cell types have variable kinase expression profiles we sought to determine the kinase binding profile in our SH-SY5Y TFEB-relocalization cell model. […] Bound kinases were pulled down and analyzed by mass spectrometry to determine the in situ kinase binding profile for each compound.

Assay [2] has as its target cellular kinases of SH-SY5Y cells (Homo sapiens, UniProt Q13555). The note with it: 2µM; SH-SY5Y cells; Labeling Site Lys1; TSTQEYAAKIINTK; read-out: KiNativ in-cell binding, % Inhibition, CaMK2g.
From the text: as §1

For assay [3], the target named is cellular kinases of SH-SY5Y cells (Homo sapiens, UniProt P51617). The settings on record: 2µM; SH-SY5Y cells; labeling site Lys2; peptide AIQFLHQDSPSLIHGDIKSSNVLLDER
From the text: as §1

In assay [4] the target is T2, cellular kinases of SH-SY5Y cells (Homo sapiens, UniProt Q9H2G2).
T2 construct: endogenous in cells; host or cells: SH-SY5Y
T2 sequence (Q9H2G2 whole entry): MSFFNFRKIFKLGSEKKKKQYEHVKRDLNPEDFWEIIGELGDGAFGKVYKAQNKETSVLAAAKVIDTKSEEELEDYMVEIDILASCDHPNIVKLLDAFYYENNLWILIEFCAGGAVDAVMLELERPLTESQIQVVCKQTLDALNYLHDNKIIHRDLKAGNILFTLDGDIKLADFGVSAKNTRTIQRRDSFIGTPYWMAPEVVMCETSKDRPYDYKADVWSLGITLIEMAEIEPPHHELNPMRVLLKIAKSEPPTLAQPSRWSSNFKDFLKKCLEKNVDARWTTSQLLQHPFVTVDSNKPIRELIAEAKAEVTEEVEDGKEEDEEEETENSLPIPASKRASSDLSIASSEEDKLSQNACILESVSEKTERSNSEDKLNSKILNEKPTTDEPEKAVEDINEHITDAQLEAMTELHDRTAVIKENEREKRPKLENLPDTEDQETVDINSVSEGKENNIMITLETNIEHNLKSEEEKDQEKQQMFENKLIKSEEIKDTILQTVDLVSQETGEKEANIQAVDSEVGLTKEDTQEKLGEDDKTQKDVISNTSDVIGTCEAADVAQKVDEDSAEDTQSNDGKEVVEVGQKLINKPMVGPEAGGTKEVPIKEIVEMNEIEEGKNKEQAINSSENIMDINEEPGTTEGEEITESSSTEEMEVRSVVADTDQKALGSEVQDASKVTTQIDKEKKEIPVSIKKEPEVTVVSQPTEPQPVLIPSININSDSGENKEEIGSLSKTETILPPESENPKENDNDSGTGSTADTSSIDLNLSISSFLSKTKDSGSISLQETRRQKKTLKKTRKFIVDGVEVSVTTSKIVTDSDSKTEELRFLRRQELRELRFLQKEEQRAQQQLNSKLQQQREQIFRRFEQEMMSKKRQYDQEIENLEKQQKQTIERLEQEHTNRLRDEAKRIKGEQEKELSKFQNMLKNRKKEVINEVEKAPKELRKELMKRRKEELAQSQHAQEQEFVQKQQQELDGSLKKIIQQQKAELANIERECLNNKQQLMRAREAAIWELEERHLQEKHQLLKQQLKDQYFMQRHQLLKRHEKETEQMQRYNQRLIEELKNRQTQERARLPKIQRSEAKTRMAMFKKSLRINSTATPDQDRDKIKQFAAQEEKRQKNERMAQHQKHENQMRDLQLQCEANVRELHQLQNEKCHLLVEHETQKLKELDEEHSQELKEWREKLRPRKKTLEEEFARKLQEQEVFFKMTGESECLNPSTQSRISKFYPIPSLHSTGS
The settings on record: 2µM, SH-SY5Y cells.
From the text: as §1

For assay [5], the target named is T3, cellular kinases of SH-SY5Y cells (Homo sapiens, UniProt Q9UHD2).
T3 construct: endogenous in cells; host or cells: SH-SY5Y
The settings on record: 2µM; SH-SY5Y cells; labeling site Lys1; peptide TGDLFAIKVFNNISFLRPVDVQMR
From the text: as §1

Assay [6] addresses cellular kinases of SH-SY5Y cells (Homo sapiens, UniProt Q8NEB9). The settings on record: 2µM, SH-SY5Y cells.
From the text: as §1

Assay [7] has as its target T4, cellular kinases of SH-SY5Y cells (Homo sapiens, UniProt O15111).
T4 construct: endogenous in cells; host or cells: SH-SY5Y
The settings on record: 2µM; SH-SY5Y cells; Labeling Site Lys2; DLKPENIVLQDVGGK; read-out: KiNativ in-cell binding, % Inhibition, CHUK/IKKa.
From the text: as §1

Assay [8] deals with cellular kinases of SH-SY5Y cells (Homo sapiens, UniProt Q16584). The note with it: 2µM; SH-SY5Y cells; labeling site Lys2; peptide DLKSNNILLLQPIESDDMEHK
From the text: as §1

The target in assay [9] is T5, cellular kinases of SH-SY5Y cells (Homo sapiens, UniProt Q9Y4K4).
T5 construct: endogenous in cells; host or cells: SH-SY5Y
T5 sequence (Q9Y4K4 whole entry): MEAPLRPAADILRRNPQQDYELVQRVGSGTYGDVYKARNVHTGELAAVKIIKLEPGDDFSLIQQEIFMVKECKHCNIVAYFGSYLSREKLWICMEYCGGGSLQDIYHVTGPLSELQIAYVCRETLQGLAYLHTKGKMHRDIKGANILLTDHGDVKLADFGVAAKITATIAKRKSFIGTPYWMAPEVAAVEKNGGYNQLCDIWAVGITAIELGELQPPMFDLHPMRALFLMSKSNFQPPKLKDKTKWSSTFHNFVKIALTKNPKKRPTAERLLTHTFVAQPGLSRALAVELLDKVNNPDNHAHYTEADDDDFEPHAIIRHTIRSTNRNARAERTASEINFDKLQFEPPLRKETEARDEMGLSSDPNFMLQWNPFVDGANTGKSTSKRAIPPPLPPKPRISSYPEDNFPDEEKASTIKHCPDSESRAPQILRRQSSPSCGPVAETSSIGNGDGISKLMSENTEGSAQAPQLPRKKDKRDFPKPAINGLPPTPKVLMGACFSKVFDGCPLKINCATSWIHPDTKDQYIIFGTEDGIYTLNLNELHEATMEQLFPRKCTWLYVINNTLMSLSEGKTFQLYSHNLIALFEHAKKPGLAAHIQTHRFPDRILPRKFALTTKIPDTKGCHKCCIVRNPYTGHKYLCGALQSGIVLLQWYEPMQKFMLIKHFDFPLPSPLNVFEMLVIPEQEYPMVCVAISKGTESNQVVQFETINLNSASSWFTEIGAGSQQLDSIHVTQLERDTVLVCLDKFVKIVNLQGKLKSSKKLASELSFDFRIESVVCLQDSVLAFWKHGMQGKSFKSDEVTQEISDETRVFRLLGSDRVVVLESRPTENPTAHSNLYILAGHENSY
The note with it: 2µM, SH-SY5Y cells, read-out: KiNativ in-cell binding, % Inhibition, MAP4K5.
From the text: as §1

The target of assay [10] is T6, cellular kinases of SH-SY5Y cells (Homo sapiens, UniProt P46734).
T6 sequence (P46734 1-347): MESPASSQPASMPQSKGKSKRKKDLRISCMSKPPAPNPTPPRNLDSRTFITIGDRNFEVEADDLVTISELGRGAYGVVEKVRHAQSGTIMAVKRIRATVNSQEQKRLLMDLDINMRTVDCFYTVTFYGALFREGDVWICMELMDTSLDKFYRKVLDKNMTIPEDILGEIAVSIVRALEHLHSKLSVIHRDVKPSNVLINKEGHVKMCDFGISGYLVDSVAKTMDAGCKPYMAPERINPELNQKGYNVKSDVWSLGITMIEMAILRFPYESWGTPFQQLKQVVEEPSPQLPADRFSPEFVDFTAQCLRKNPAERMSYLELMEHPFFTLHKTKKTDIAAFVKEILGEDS
The settings on record: 2µM, SH-SY5Y cells.
From the text: as §1

Assay [11] addresses cellular kinases of SH-SY5Y cells (Homo sapiens, UniProt P00533). The note with it: 2µM, SH-SY5Y cells, read-out: KiNativ in-cell binding, % Inhibition, EGFR, EGFR-L858R.
From the text: as §1

Assay [12] addresses cellular kinases of SH-SY5Y cells (Homo sapiens, UniProt Q9Y2U5). The settings on record: 2µM; SH-SY5Y cells; Labeling Site Lys1; ELAVKQVQFDPDSPETSKEVNALECEIQLLK; read-out: KiNativ in-cell binding, % Inhibition, MAP3K2.
From the text: as §1

The target of assay [13] is T7, cellular kinases of SH-SY5Y cells (Homo sapiens, UniProt P43403).
T7 construct: endogenous in cells; host or cells: SH-SY5Y
The settings on record: 2µM; SH-SY5Y cells; Labeling Site Activation Loop; SAGKWPLK; read-out: KiNativ in-cell binding, % Inhibition, ZAP70.
From the text: as §1

The target in assay [14] is cellular kinases of SH-SY5Y cells (Homo sapiens, UniProt P07332). The settings on record: 2µM; SH-SY5Y cells; Labeling Site Lys1; LRADNTLVAVKSCR; read-out: KiNativ in-cell binding, % Inhibition, FES.
From the text: as §1

The target of assay [15] is T8, cellular kinases of SH-SY5Y cells (Homo sapiens, UniProt P48426).
T8 construct: endogenous in cells; host or cells: SH-SY5Y
The settings on record: 2µM; SH-SY5Y cells; Labeling Site ATP; AKELPTLKDNDFINEGQK; read-out: KiNativ in-cell binding, % Inhibition, PIP4K2A.
From the text: as §1

Assay [16] addresses cellular kinases of SH-SY5Y cells (Homo sapiens, UniProt Q9HCP0). The note with it: 2µM; SH-SY5Y cells; Labeling Site Lys2; DVKPENFLIGR; read-out: KiNativ in-cell binding, % Inhibition, CK1g1.
From the text: as §1

Assay [17] addresses cellular kinases of SH-SY5Y cells (Homo sapiens, UniProt O00329). The settings on record: 2µM; SH-SY5Y cells; Labeling Site ATP; VNWLAHNVSKDNRQ; read-out: KiNativ in-cell binding, % Inhibition, PIK3CD.
From the text: as §1

Where two headings read alike, the source gives them in different places.

Sequence of cellular kinases of SH-SY5Y cells (Homo sapiens, UniProt Q8NEB9) (Q8NEB9 whole entry): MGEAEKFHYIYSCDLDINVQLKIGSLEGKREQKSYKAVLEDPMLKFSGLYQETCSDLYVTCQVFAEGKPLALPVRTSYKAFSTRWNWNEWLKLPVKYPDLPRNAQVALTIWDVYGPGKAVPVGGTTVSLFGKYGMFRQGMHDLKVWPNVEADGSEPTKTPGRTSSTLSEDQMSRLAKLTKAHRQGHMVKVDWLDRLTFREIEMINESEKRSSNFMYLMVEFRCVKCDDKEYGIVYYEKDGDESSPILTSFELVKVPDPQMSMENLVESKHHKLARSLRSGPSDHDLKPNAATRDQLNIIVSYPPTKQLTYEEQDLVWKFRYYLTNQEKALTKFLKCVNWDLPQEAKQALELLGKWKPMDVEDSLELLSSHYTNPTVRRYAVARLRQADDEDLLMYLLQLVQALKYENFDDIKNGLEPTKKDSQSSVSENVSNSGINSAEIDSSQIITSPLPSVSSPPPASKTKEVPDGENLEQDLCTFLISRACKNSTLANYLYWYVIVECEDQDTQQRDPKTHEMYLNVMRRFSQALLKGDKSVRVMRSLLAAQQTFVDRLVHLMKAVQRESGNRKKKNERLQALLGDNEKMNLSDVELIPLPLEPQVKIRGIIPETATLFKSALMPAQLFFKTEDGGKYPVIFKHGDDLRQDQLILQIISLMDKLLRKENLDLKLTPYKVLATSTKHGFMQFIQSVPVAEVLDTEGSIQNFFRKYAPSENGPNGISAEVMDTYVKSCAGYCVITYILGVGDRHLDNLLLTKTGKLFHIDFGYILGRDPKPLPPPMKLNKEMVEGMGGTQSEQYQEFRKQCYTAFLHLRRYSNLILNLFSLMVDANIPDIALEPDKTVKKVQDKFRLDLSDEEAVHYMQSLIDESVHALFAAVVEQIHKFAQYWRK
T1 sequence (Q58A45 whole entry): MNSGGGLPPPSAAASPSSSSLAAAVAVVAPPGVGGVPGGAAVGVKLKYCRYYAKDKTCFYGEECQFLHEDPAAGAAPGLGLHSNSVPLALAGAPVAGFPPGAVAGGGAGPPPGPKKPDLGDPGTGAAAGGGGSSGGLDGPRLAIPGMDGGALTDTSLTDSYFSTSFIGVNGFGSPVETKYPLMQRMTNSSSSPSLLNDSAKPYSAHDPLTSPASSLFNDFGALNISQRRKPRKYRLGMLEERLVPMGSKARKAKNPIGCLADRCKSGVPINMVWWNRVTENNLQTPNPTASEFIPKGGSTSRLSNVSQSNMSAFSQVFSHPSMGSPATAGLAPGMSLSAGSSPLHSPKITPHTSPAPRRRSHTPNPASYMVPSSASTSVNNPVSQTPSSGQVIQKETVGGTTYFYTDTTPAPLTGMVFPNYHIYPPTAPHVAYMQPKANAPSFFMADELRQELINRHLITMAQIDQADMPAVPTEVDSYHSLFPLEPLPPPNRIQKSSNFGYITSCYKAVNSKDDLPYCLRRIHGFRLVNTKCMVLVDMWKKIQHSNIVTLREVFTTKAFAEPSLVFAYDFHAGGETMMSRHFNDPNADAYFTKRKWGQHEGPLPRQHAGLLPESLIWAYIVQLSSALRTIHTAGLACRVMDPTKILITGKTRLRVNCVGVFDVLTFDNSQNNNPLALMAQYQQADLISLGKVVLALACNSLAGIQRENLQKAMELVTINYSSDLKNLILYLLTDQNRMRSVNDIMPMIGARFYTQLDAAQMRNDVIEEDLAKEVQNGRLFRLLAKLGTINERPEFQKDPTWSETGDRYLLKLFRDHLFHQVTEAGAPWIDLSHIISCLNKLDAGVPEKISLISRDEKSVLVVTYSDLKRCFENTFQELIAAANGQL
Sequence of cellular kinases of SH-SY5Y cells (Homo sapiens, UniProt P00533) (P00533 25-1210): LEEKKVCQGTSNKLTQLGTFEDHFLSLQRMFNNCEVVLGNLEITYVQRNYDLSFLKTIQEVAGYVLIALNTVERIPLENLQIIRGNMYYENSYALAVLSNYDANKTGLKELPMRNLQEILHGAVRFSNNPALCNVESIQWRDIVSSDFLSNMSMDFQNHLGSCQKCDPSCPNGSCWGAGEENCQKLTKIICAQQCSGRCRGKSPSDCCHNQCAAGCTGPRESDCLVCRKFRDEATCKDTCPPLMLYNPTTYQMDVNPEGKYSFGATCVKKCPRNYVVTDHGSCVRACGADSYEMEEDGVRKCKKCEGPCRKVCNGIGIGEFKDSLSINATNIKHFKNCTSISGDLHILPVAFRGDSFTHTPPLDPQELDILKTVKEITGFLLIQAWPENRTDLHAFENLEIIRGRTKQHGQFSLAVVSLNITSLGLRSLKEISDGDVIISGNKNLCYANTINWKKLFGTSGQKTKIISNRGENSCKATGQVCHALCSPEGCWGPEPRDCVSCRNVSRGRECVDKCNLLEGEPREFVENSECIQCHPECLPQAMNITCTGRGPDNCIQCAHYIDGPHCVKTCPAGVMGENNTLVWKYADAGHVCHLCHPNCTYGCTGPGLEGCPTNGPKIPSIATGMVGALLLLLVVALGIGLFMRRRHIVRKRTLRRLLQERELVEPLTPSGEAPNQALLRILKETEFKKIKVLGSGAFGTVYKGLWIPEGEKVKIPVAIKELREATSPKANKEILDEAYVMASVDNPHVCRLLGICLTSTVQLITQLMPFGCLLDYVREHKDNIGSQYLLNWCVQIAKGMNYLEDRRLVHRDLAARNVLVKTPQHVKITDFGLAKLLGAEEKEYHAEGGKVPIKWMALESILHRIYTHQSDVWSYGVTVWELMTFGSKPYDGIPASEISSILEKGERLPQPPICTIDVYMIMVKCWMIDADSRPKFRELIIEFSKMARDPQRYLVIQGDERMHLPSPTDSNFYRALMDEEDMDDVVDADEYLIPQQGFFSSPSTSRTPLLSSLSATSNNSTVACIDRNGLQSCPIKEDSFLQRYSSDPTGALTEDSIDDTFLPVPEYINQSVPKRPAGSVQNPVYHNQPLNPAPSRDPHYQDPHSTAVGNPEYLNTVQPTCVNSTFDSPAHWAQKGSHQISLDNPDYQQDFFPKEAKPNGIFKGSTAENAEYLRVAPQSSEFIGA

For `Cc1cccc(-c2nc(Nc3ccc4ncsc4c3)c3ccccc3n2)n1` [NK140], the “KiNativ in-cell binding, PAN3” value is reported as -119.6 in [1] (peptide IQKSSNFGYITSCYK) and -99.0 in assay [1] (peptide VMDPTKILITGK). Also, the inhibition at 2 µM in assay [2] was 30.4%; in assay [4] (Labeling Site Lys1, AQNKETSVLAAAKVIDTK, read-out: KiNativ in-cell binding, % Inhibition, SLK (SLK OR FYN/SLK)) it was 16.4%; in assay [4] (Labeling Site Lys2, DLKAGNILFTLDGDIK, read-out: KiNativ in-cell binding, % Inhibition, SLK) it was 26.7%; in assay [6] (Labeling Site ATP, TEDGGKYPVIFKHGDDLRQDQLILQIISLMDK, read-out: KiNativ in-cell binding, % Inhibition, PIK3C3), -69%; in [7], -29.6%; in assay [9] (Labeling Site Lys1, NVHTGELAAVKIIK) it was 27.4%. Also, the inhibition at 2 µM was 26.4% in assay [9] (Labeling Site Lys2, DIKGANILLTDHGDVK); 2.5% in assay [10] (Labeling Site Activation Loop, MCDFGISGYLVDSVAKTMDAGCKPYMAPER, read-out: KiNativ in-cell binding, % Inhibition, MAP2K3); 33.5% in assay [11] (Labeling Site Activation Loop, LLGAEEKEYHAEGGKVPIK); 14.4% in assay [11] (Labeling Site Lys1, IPVAIKELR); -2% in [12]; -3% in [13]. In addition, the inhibition at 2 µM in assay [14] is 17.1%; in assay [15], 29.7%; in [16] it was -28.2%; in [17] it was -29.2%. The “KiNativ in-cell binding, IRAK1” value in assay [3] is given as -26.5. The “KiNativ in-cell binding, TBK1” value in assay [5] was -253.9. For the same compound, the “KiNativ in-cell binding, PIK3C3” value in assay [6] (labeling site ATP, peptide TEDGGKYPVIFKHGDDLR) is recorded as -30.4. The “KiNativ in-cell binding, MAP3K11” value in [8] is -55.2. The “KiNativ in-cell binding, MAP2K3” value was -144.3 in assay [10] (labeling site Lys1, peptide HAQSGTIMAVKR) and -182.7 in assay [10] (labeling site Lys2, peptide DVKPSNVLINK).
